Usually melting point stands for the temperature, or range, at which the solid turns liquid.

The subject of one data set is Septoria nodorum. The experiment in a line: Test for preventive effect on Septoria leaf blotch of wheat. The class given is in vivo. The conditions noted are these: wheat seedlings (Norin-61-go), two-leaf stage, 50 ppm active ingredient, 10 ml per pot, evaluated 10 days after inoculation with Septoria nodorum. An excerpt:
[table] 10 Wheat seeds (variety: Norin-61-go) were sown in each plastic pot having a diameter of 6 cm, and grown in a greenhouse. […] Then, the seedlings were inoculated with Septoria nodorum […] controlled in a greenhouse. 10 Days after the inoculation, the total diseased area of the first leaves in each pot was observed and evaluated on the basis of the standards shown in Table 21.

The next data set relates to Erysiphe graminis. The data set can be described thus: Test for preventive effect on wheat powdery mildew. The class given is in vivo. The conditions noted are these: wheat seedlings (Norin-61-go), two-leaf stage, 500 ppm active ingredient, wettable powder, total diseased area of first leaves 10 days after inoculation. The procedure:
10 Wheat seeds (variety: Norin-61-go) were sown in each plastic pot having a diameter of 6 cm, and grown in a greenhouse. Wheat seedlings which reached a two-leaf stage were treated with 10 ml per pot of aqueous solutions of wettable powders prepared in accordance with Formulation Example 2, at a concentration of 500 ppm in terms of the active ingredients, and dried in the air. Then, the seedlings were inoculated with Erysiphe graminis spore and controlled in a greenhouse. 10 Days after the inoculation, the total diseased area of the first leaves in each pot was observed and evaluated on the basis of the standards shown in Table 21.

Another data set deals with Botrytis cinerea. The experiment in a line: Test for preventive effect on cucumber gray mold. The class given is in vivo. The conditions noted are these: cucumber seedlings (Sagami-hanziro), cotyledon stage, 500 ppm active ingredient, 10 ml per pot, evaluated 3 days after inoculation with Botrytis cinerea, 22° C moist chamber. The procedure:
4 cucumber seeds (variety: Sagami-hanziro) were sown in each plastic pot having a diameter of 6 cm and grown in a greenhouse. Cucumber young seedlings which reached a cotyledon stage were treated with 10 ml per pot of aqueous solutions of wettable powders prepared in accordance with Formulation Example 2, at a concentration of 500 ppm in terms of the active ingredients and dried in the air. Then, the seedlings were inoculated with Botrytis cinerea spore by putting a paper disc soaked with the spore suspension on the surface of the cucumber cotyledons, and the seedlings were immediately placed in a moist chamber of 22° C. 3 Days after the inoculation, the total diseased area of the cotyledons in each pot was observed and evaluated on the basis of the standards shown in Table 24.

Consider `CON=C(C#N)c1ccc(Cl)c(CNC(=O)OC)c1` [A-3, 2-[4-chloro-3-(methoxycarbonylaminomethyl)phenyl]-2-methoxyiminoacetonitrile], for which the melting point lay in the range of 104 to 107 °C. Further, the “Evaluation (total diseased area of the first leaves)” value in the data set with Septoria nodorum is on record as “B (Diseased area of less than 5%)”. Besides, in the data set on Erysiphe graminis, the Evaluation entry was “A (No diseased area)”.

With `COC(=O)NCc1cc(C(C)=NO)ccc1Cl` [A-45, Methyl N-[2-chloro-5-(1-hydroxyiminoethyl)benzyl]carbamate], the melting point lay within 124 to 127 °C.

As for `COC(=O)NCc1cc(C(C)=NOCc2ccc(F)cc2)ccc1Cl` [A-83, Methyl N-{2-chloro-5-[1-(4-fluorobenzyloxyimino)ethyl]benzyl}carbamate], the melting point fell in the range of 101 to 103 °C. In addition, the “Evaluation (total diseased area of the first leaves)” value in the data set on Septoria nodorum is “A (No diseased area)”. Besides, the Evaluation entry in the data set on Erysiphe graminis is listed as “A (No diseased area)”.

With `COC(=O)NCc1cc(C(C)=NOCc2ccccc2)ccc1C` [A-113], the “Evaluation (total diseased area of the first leaves)” value with Septoria nodorum is “A (No diseased area)”. Further, the Evaluation result in the data set with Erysiphe graminis is “A (No diseased area)”.

For `CON=C(C)c1cccc(CON=C(C)c2ccc(Cl)c(CNC(=O)OC)c2)c1` [A-291], the “Evaluation (total diseased area of the first leaves)” value in the data set with Septoria nodorum is given as “A (No diseased area)”. In the data set with Botrytis cinerea, the “Evaluation (total diseased area of the cotyledons)” value is reported as 3.

With `COC(=O)NCc1cc(C(C)=NOCc2cccc(C)n2)ccc1C` [A-434, Methyl N-{2-methyl-5-[1-(6-methylpyridin-2-ylmethoxy)iminoethyl]benzyl}carbamate], the melting point lay in the range of 72 to 75 °C.

These data come from patent US6812229B1, “Carbamate derivative and agricultural/horticultural fungicide” (Kumiai Chemical Industry Co., Ltd., priority 1999, dated 2004).
